Values of other authors, collected in patent US20050218054A1, “Apparatus for Producing sterilized water” (priority 2002, published 2005).

Conditions: same chlorine concentration

OCl [hypochlorous acid ion]
Sterilization power relative to hypochlorous acid (HOCL): about 1/80
